According to patent publication US6120997A, “Nucleic acid binders having an hydroxyamine motif” (The Scripps Research Institute, priority 1998, dated 2000):
Entries after “also recorded” stand apart in the source; their conditions may differ. Where two headings read alike, the source gives them in different places.

Key:
Design in all cases: species or system HIV-1
RBE3 = assay: SPR binding of aminoglycosides to RBE3; conditions: 25 C; for Kd: pH 7.0, 10 mM HEPES, 150 mM NaCl, 0.1 mM EDTA, Scatchard slope; for Scatchard plot x-axis intercept (RBE3): pH 7.0, 150 mM NaCl
Procedure: (§1) FIGS. 9A and 9B illustrate neomycin B binding to RBE3, RBE3-neg and wt-RRE-II. (A) Semilogarithmic plot. […] Conditions: pH 7.0, 10 mM HEPES, 150 mM NaCl, 0.1 mM EDTA, […].
(§2) FIGS. 10A and 10B illustrate paromomycin binding to RBE3, RBE3-neg and wt-RRE-II. (A) Semilogarithmic plot; the dashed line indicates the binding of neomycin B to wt-RRE-II for comparison (B) Scatchard plot. […] Conditions: pH 7.0, 10 mM HEPES, 150 mM NaCl, 0.1 mM EDTA, […].
(§3) Binding of the aminoglycoside to all three RNA oligonucleotides is observed starting in the low nanomolar concentration range and is non-saturable over the concentration range investigated. […] The high degree of non-specific binding is not surprising considering that aminoglycosides are highly charged polycations that tend to associate nonspecifically with the polyanionic phosphate backbone of RNA. […] Data points corresponding to 0.5 or more equivalents of neomycin B represent equilibrium values and can be analyzed with respect to stoichiometry and affinity of aminoglycoside binding. […] Both sequences bind one molecule of neomycin B with submicromolar affinity followed by weaker association with several additional equivalents of the antibiotic.
(§4) Samples were prepared by serial dilutions from stock solutions in RNase free microfuge tubes (Ambion) and were centrifuged at 14000 rpm for degassing. Buffers were filtered through sterile 0.2 &m nylon membranes (Nalgene) under vacuum, except for BIA certified HBS buffer (Pharmacia Biosensor AB) which was used as obtained. All procedures for binding studies were automated as methods using repetitive cycles of sample injection and regeneration. Typically, buffer was injected in the first two cycles to establish a stable baseline value. Samples were injected at a flowrate of 5-10 &L/min using either the KINJECT or the COINJECT command. All aminoglycoside and Rev27 samples were injected from autoclaved 7 mm plastic vials that were capped with pierceable plastic crimp caps. To minimize carry over, samples were injected in order of increasing concentration. The running buffer was identical to the injection buffer, except for the salt dependence study where a single running buffer was used for all injections. Expected values for the equilibrium response of one equivalent of analyte were calculated from the relative molecular weight of the analyte and the immobilized RNA ligand in each flowcells. These values were adjusted by multiplying with a factor of 0.8 or 0.57 for Rev27 or aminoglycosides respectively. These factors arise from the different molar refractive indices of RNA and the analyte and were determined from the Scatchard plot x-axis intercepts of the 1:1 binding isotherms for Rev27 and neomycin B.
Binding Studies with Aminoglycosides. […]

wt-RRE-II = assay: SPR binding of aminoglycosides to wt-RRE-II; conditions: for dissociation from wt-RRE-II after 1 min (in words): aminoglycoside-free buffer, pH 7.4, 150 mM NaCl
Procedure: as §1, §2
FIG. 11 illustrates the kinetic stability of wt-RRE-II complexes with neomycin B vs. paromomycin. […] Data points were taken after 1 min of dissociation.
as §3, §4
Binding Studies with Aminoglycosides.
Neomycin B sulfate (Fluka) was converted to the free base by passing it through Amberlite IRA 400 (OH-- form) and purified by ion exchange chromatography on Dowex 1-X2 100 to remove neomycin C; the purity of neomycin B was verified by NMR in D2 O. Paromomycin sulfate was obtained from Sigma and used as received. Samples were prepared by dilution from 10 mM stock solutions in injection buffer (10 mM HEPES, pH 7.4, 150 mM NaCl, 3.4 mM EDTA). Data points were taken after an association phase of 30 min. A 2 min regeneration pulse of 150 mM Na2 SO4 in injection buffer was used between injections. […]

[1] = tested on: wt-RRE-II, RBE3 and RBE3-neg; assay: SPR binding of aminoglycosides to RRE related RNAs
Procedure: Samples were prepared by serial dilutions from stock solutions in RNase free microfuge tubes (Ambion) and were centrifuged at 14000 rpm for degassing. […] All procedures for binding studies were automated as methods using repetitive cycles of sample injection and regeneration. Typically, buffer was injected in the first two cycles to establish a stable baseline value. […] To minimize carry over, samples were injected in order of increasing concentration.
General Procedures for SPR Binding Studies done in Example 5. Samples were prepared by serial dilutions from stock solutions in RNase free microfuge tubes (Ambion) and were centrifuged at 14000 rpm for degassing. Unless otherwise noted, all binding studies were carried out using HBS buffer (Pharmacia Biosensor AB) which was used as obtained. All procedures for binding studies were automated as methods using repetitive cycles of sample injection and regeneration. Typically, buffer was injected in the first two cycles to establish a stable baseline value. Samples were injected at a flowrate of […] using either the KINJECT command. All aminoglycoside samples were injected from autoclaved 7 mm plastic vials that were capped with pierceable plastic crimp caps. To minimize carry over, samples were injected in order of increasing concentration. The running buffer was identical to the injection buffer.

SMILES | Kd (RBE3; read-out: Kd (RBE3), neomycin B) [nM] | Scatchard plot x-axis intercept (RBE3) (RBE3) | number of molecules/sites bound with submicromolar affinity (wt-RRE-II) (wt-RRE-II; SPR) | dissociation from wt-RRE-II after 1 min (in words) (wt-RRE-II) | relative binding affinity for wt-RRE-II (in words) (wt-RRE-II; comparison of aminoglycosides) | discrimination between the three RRE related sequences (in words) [1] | weaker binding to the three RRE related RNAs than to AS-wt [1] [fold] | Kd (RBE3; read-out: Kd (RBE3), paromomycin) [nM] | lower affinity compared to neomycin B ([1]; wt-RRE-II, RBE3 and RBE3-neg, equilibrium binding)
NC[C@@H]1O[C@H](O[C@H]2[C@@H](O)[C@H](O[C@@H]3[C@@H](O)[C@H](N)C[C@H](N)[C@H]3O[C@H]3O[C@H](CN)[C@@H](O)[C@H](O)[C@H]3N)O[C@@H]2CO)[C@H](N)[C@@H](O)[C@@H]1O [Neomycin B] | 210 | 1.01 | three different sites, each with a submicromolar dissociation constant; also recorded: three molecules of neomycin B are bound with submicromolar affinity; also recorded: up to three molecules | apparent 1:1 binding isotherm | highest affinity | no discrimination | 12 |  | 
NC[C@@H]1O[C@H](O[C@H]2[C@@H](O)[C@H](O[C@@H]3[C@@H](O)[C@H](N)C[C@H](N)[C@H]3O[C@H]3O[C@H](CO)[C@@H](O)[C@H](O)[C@H]3N)O[C@@H]2CO)[C@H](N)[C@@H](O)[C@@H]1O [Paromomycin] |  | 1.04 |  | No apparent 1:1 binding isotherm is discernible |  |  |  | 2800 | approximately 15 fold
